The results in this text go back to PubChem BioAssay (NCI).

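48-hour exposure; five concentrations; linearly interpolated endpoints. Abbreviation: GI50, concentration required for 50% inhibition of growth. TGI is the concentration that stops growth completely.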

Test systems include 786-0 renal; RPMI-8226 leukemia; A549 NSCLC; HOP-92 NSCLC; NCI-H460 lung; UO-31 renal; OVCAR-8 ovarian; KM12 colon; HCC-2998 colon; UACC-62 melanoma.
Holding throughout (experiment): NCI anticancer screen, dose series, 48 h

Turning to `O=C1/C(=C\c2ccccc2)CN(C(=O)c2ccccc2F)C/C1=C\c1ccccc1`, the GI50 with 786-0 renal is 1.85 µM; in the experiment with RPMI-8226 leukemia, 0.125 µM; in the experiment on A549 NSCLC, 3.2 µM; with HOP-92 NSCLC it was 3.18 µM; in the experiment with NCI-H460 lung, 2.67 µM; in the experiment on UO-31 renal it was 1.53 µM. In addition, the GI50 in the experiment with OVCAR-8 ovarian is 2.67 µM; with KM12 colon, 1.37 µM; with HCC-2998 colon it was 2.11 µM; in the experiment with UACC-62 melanoma, 1.68 µM. Moreover, the TGI in the experiment with 786-0 renal came to 3.56 µM; with RPMI-8226 leukemia, 0.72 µM; with A549 NSCLC, 12 µM; in the experiment on HOP-92 NSCLC, 14.2 µM; in the experiment on NCI-H460 lung, 7.35 µM; in the experiment on UO-31 renal it was 3.24 µM. Further, the TGI with OVCAR-8 ovarian came out at 7.9 µM; in the experiment with KM12 colon, 3.11 µM; in the experiment on HCC-2998 colon it was 3.66 µM; in the experiment with UACC-62 melanoma, 3.41 µM.
Take `C/C(=N\NC(=S)Nc1ccccc1)c1ccccn1`: the GI50 was 0.277 µM in the experiment with 786-0 renal; 0.0296 µM in the experiment on RPMI-8226 leukemia; 0.263 µM with A549 NSCLC; under 0.0162 µM in the experiment on HOP-92 NSCLC; 0.0692 µM in the experiment with NCI-H460 lung; 0.0565 µM with UO-31 renal. Also, the GI50 in the experiment on OVCAR-8 ovarian was under 0.0169 µM; in the experiment with KM12 colon, 0.143 µM; in the experiment with HCC-2998 colon, 0.924 µM; in the experiment with UACC-62 melanoma, 0.264 µM. For the same compound, the TGI with 786-0 renal came out at 1.99 µM; in the experiment on RPMI-8226 leukemia, 39.3 µM; in the experiment on A549 NSCLC, 2.9 µM; in the experiment with HOP-92 NSCLC, 0.607 µM; with NCI-H460 lung, 3.74 µM; in the experiment with UO-31 renal it was 2.75 µM. Also, the TGI in the experiment with OVCAR-8 ovarian came out at 2.54 µM; in the experiment on KM12 colon, 2.29 µM; in the experiment with HCC-2998 colon, 3.12 µM; in the experiment on UACC-62 melanoma, 2.96 µM.
For the compound `CC(=O)NNc1nc(C)c(C(/C=C/c2ccc3c(c2)OCO3)=N/NC(=O)c2ccncc2)s1`, the TGI in the experiment with 786-0 renal, in the experiment with RPMI-8226 leukemia, in the experiment with A549 NSCLC, with HOP-92 NSCLC, with NCI-H460 lung and with UO-31 renal was over 100 µM throughout. For the same compound, the TGI with OVCAR-8 ovarian, with KM12 colon, with HCC-2998 colon and in the experiment with UACC-62 melanoma was over 100 µM throughout.
As for `COC(=O)CC(CC(=O)C(=O)OC)C(=O)OC` (stereo not given), the TGI in the experiment on 786-0 renal, in the experiment with RPMI-8226 leukemia, in the experiment on A549 NSCLC, in the experiment with HOP-92 NSCLC, in the experiment with NCI-H460 lung and in the experiment on UO-31 renal was over 100 µM each time. Also, the TGI in the experiment on OVCAR-8 ovarian, in the experiment with KM12 colon, in the experiment on HCC-2998 colon and with UACC-62 melanoma was over 100 µM each time.
As for `C[C@@H](Oc1cc(-n2cnc3ccc(OCC4CCN(C)CC4)cc32)sc1C(N)=O)c1ccccc1C(F)(F)F`, the GI50 in the experiment on 786-0 renal was 0.523 µM; in the experiment on RPMI-8226 leukemia it was 0.133 µM; in the experiment with A549 NSCLC it was 0.131 µM; in the experiment on HOP-92 NSCLC, 0.307 µM; in the experiment with NCI-H460 lung, 0.0872 µM; in the experiment with UO-31 renal it was 0.948 µM. The GI50 with OVCAR-8 ovarian was 0.0896 µM; in the experiment on KM12 colon it was 0.0671 µM; with HCC-2998 colon it was 0.0859 µM; in the experiment with UACC-62 melanoma it was 0.0964 µM. The TGI amounted to 4.24 µM in the experiment on 786-0 renal; 5.89 µM with RPMI-8226 leukemia; 2.7 µM with A549 NSCLC; 3.43 µM with HOP-92 NSCLC; 3.1 µM with NCI-H460 lung; 4.33 µM in the experiment on UO-31 renal. Moreover, the TGI in the experiment with OVCAR-8 ovarian worked out at 2.85 µM; with KM12 colon, 0.991 µM; in the experiment on HCC-2998 colon, 2.98 µM; in the experiment on UACC-62 melanoma, 3.02 µM.
`CC(=O)C(CN1CCOCC1)C(c1ccccc1)c1c(O)c2ccccc2oc1=O` (stereo not given): the TGI with 786-0 renal was over 100 µM; with RPMI-8226 leukemia, 96.4 µM; with A549 NSCLC, over 100 µM; with HOP-92 NSCLC, over 100 µM; in the experiment on NCI-H460 lung, over 100 µM; with UO-31 renal it was over 100 µM. The TGI in the experiment on OVCAR-8 ovarian, with KM12 colon, in the experiment on HCC-2998 colon and in the experiment on UACC-62 melanoma was over 100 µM in each case.
With `c1ccc(CNc2nc(Nc3ccc(-c4nc5ccccc5[nH]4)cc3)c3cn[nH]c3n2)cc1`, the GI50 with 786-0 renal is 1.77 µM; in the experiment on RPMI-8226 leukemia, 2.15 µM; in the experiment with A549 NSCLC, 2.89 µM; with HOP-92 NSCLC, 1.99 µM; in the experiment with NCI-H460 lung, 2.18 µM; in the experiment on UO-31 renal, 2.02 µM. Further, the GI50 was 2.57 µM in the experiment with OVCAR-8 ovarian, 1.9 µM in the experiment on KM12 colon, 1.91 µM with HCC-2998 colon and 2.13 µM with UACC-62 melanoma. Moreover, the TGI in the experiment on 786-0 renal is 3.73 µM; in the experiment on RPMI-8226 leukemia, 5.51 µM; with A549 NSCLC, 8.92 µM; with HOP-92 NSCLC, 5.56 µM; in the experiment with NCI-H460 lung, 5.76 µM; with UO-31 renal, 6.02 µM. In addition, the TGI with OVCAR-8 ovarian was found to be 6.73 µM; in the experiment on KM12 colon, 4.87 µM; in the experiment with HCC-2998 colon it was 3.78 µM; in the experiment on UACC-62 melanoma, 4.92 µM.
For `COc1cc(-c2cn(-c3ccc(Cl)cc3)c(=O)n2-c2ccccc2)cc(OC)c1OC`, the GI50 is over 83.1 µM in the experiment on 786-0 renal; over 35.4 µM with RPMI-8226 leukemia; over 46.6 µM in the experiment on A549 NSCLC; 24.1 µM in the experiment on HOP-92 NSCLC; over 80.9 µM in the experiment on NCI-H460 lung; 89.3 µM in the experiment on UO-31 renal. Moreover, the GI50 in the experiment on OVCAR-8 ovarian was 40.8 µM; in the experiment with KM12 colon, over 69.9 µM; in the experiment on HCC-2998 colon, over 56.3 µM; in the experiment on UACC-62 melanoma it was 32.5 µM. Besides, the TGI in the experiment on 786-0 renal is over 100 µM; in the experiment on RPMI-8226 leukemia it was over 100 µM; in the experiment on A549 NSCLC it was over 100 µM; with HOP-92 NSCLC it was over 88.5 µM; in the experiment on NCI-H460 lung, over 100 µM; with UO-31 renal it was over 100 µM. The TGI with OVCAR-8 ovarian, with KM12 colon, in the experiment on HCC-2998 colon and in the experiment on UACC-62 melanoma was over 100 µM throughout.
For the compound `CC[C@]12C=CCN3CC[C@]4(C(=C(C(=O)OC)C1)Nc1ccccc14)[C@@H]32`, the GI50 in the experiment with 786-0 renal is 3.66 µM; in the experiment with RPMI-8226 leukemia, 3.17 µM; with A549 NSCLC it was 12.4 µM; with HOP-92 NSCLC it was 2.28 µM; in the experiment with NCI-H460 lung, 4.11 µM; with UO-31 renal, 4.11 µM. The GI50 with OVCAR-8 ovarian was 3.75 µM; in the experiment with KM12 colon, 3.65 µM; in the experiment on HCC-2998 colon, 11.4 µM; in the experiment on UACC-62 melanoma, 2.89 µM. Besides, the TGI turned out to be 15.6 µM in the experiment with 786-0 renal; 17.8 µM in the experiment with RPMI-8226 leukemia; 31.8 µM in the experiment on A549 NSCLC; 9.27 µM in the experiment on HOP-92 NSCLC; 16.3 µM with NCI-H460 lung; 16.5 µM with UO-31 renal. Moreover, the TGI in the experiment on OVCAR-8 ovarian is over 100 µM; with KM12 colon, 14.5 µM; in the experiment on HCC-2998 colon, 24.9 µM; in the experiment on UACC-62 melanoma it was 12 µM.
